The target of data set [1] is T1, SmCHS2 (chitin synthase 2) (Saprolegnia monoica, UniProt D7NQS9).
T1 construct: full-length SmCHS2 (962 amino acids) fused to eGFP at its C-terminus, expressed in Pichia pastoris, CHAPS extract of membranes
T1 sequence (D7NQS9 1-962): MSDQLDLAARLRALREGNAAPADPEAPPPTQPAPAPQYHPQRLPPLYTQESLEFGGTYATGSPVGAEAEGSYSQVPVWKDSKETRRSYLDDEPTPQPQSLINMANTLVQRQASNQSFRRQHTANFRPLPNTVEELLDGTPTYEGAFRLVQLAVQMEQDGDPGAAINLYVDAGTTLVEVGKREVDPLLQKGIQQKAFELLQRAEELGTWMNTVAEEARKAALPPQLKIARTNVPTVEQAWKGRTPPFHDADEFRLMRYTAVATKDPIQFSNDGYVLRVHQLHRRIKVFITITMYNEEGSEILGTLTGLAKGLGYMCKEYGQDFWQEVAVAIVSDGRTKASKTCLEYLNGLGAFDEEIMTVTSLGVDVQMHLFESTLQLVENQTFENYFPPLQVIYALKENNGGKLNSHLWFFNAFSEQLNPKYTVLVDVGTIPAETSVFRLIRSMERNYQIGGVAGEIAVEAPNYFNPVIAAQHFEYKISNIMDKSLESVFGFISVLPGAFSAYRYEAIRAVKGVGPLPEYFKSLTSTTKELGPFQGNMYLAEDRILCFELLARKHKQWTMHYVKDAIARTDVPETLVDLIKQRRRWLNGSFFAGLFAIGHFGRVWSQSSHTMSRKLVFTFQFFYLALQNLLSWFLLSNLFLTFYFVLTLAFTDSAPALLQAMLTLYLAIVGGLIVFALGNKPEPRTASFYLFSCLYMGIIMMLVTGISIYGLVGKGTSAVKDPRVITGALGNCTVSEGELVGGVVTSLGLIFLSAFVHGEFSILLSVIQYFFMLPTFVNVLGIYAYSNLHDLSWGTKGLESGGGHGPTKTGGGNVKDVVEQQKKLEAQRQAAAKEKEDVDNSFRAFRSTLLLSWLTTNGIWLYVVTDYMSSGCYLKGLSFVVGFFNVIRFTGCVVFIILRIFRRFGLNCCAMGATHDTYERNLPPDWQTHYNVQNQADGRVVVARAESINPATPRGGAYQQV
The data set is described as follows: radiometric chitin synthase assay ([…]-UDP-GlcNAc) on CHAPS membrane extract of recombinant Pichia; Dixon plots. It is filed as biochemical.

Substrate in data set [2]: CC(=O)N[C@H]1[C@@H](OP(=O)(O)OP(=O)(O)OC[C@H]2O[C@@H](n3ccc(=O)[nH]c3=O)[C@H](O)[C@@H]2O)O[C@H](CO)[C@@H](O)[C@@H]1O
The experiment in a line: radiometric chitin synthase assay on CHAPS membrane extract of recombinant Pichia; apparent Km. It is filed as biochemical, Saprolegnia monoica.

What is called Ki is a measure of affinity in units of concentration, obtained from inhibition or displacement.

For `C[C@@H]([C@H](N)C(=O)N[C@H](C(=O)O)[C@H]1O[C@@H](n2ccc(=O)[nH]c2=O)[C@H](O)[C@@H]1O)[C@H](O)c1ccc(O)cn1` [nikkomycin Z], in data set [1], the inhibition constant Ki was 4.6 µM.

B1: SmCHS2 (chitin synthase 2) (Saprolegnia monoica) (protein)
chain: T1 sequence (D7NQS9 1-962)
notes: full-length SmCHS2 (962 amino acids) fused to eGFP at its C-terminus, expressed in Pichia pastoris, CHAPS extract of membranes
As to B1, in data set [2], the Km is listed as 150+12 µM.

For the origin of these results see publication PMC2928807, “Chitin Synthases from Saprolegnia Are Involved in Tip Growth and Represent a Potential Target for Anti-Oomycete Drugs” (PLoS Pathogens, 2010).
